Measurements taken from the NIST ThermoML archive (doi:10.1016/j.fluid.2015.09.038).
± gives the expanded uncertainty stated by the source.

Key:
[1] = Crystal; DTA
[2] = Molar enthalpy of transition or fusion; settings: Crystal; DSC

Normal melting temperature [1]	Molar enthalpy of transition or fusion [2]	SMILES
24.78 ± 2 °C	53 ± 20 kJ/mol	CCCCCCCCCCCCCCCC(=O)OCC [ethyl hexadecanoate]
13.63 ± 2 °C	45.3 ± 9.1 kJ/mol	CCCCCCCCCCCCC1CCCCC1 [dodecylcyclohexane]
-0.92 ± 2 °C	38.3 ± 7.7 kJ/mol	CCCCCCCCCCCC(=O)OCC [ethyl dodecanoate]
